The record followed here is PMC10590419, “Structural and mechanistic insights into the inhibition of respiratory syncytial virus polymerase by a non-nucleoside inhibitor” (Communications Biology, 2023).

The target of data set [1] is Human RNA polymerase II (Homo sapiens, UniProt P24928+P30876). Put plainly: RNA polymerase II DdRp activity (HeLa nuclear extract). Type of data set: biochemical. Particulars: RNA Pol II.
Data set [2] has as its target RSV MTase-CTD protein (Human respiratory syncytial virus A, UniProt P28887). Description: Methyltransferase filter-binding assay. Type of data set: biochemical. The note with it: for MTase activity, RNA+compound+RSV MTase-CTD, CPM: three technical replicates.
Data set [3] deals with RSV minigenome transcription and RNA replication. Description: RSV minigenome assay in BSR-T7 cells. Type of data set: cell-based, respiratory syncytial virus. Here is the method: RSV transcription and RNA replication were analyzed using a replication-deficient minigenome, in which the minigenome template contained a single nucleotide substitution in the trailer region, limiting it to the antigenome step of RNA replication and uncoupling transcription from replication. Minigenome transcription and replication were reconstituted intracellularly. BSR-T7 cells, a T7 RNA polymerase expressing cell line, were cultured in a 6-well dish and transfected with T7-driven plasmids that expressed the minigenome template (200 ng/ well), and the RSV proteins N (400 ng/ well), P (200 ng/ well), L (100 ng/ well) and M2-1 (100 ng/ well). Transfections were performed using Lipofectamine (Thermofisher) according to the manufacturer’s directions. […] Input minigenome RNA, antigenome RNA, and mRNAs were detected by subjecting RNA to electrophoresis in 1.5% agarose-formaldehyde gels in MOPS buffer, followed by Northern blotting using ^32P labeled riboprobes specific to negative sense minigenome (to detect the input RNA) and to positive sense antigenome and mRNAs. The same RNA samples were also analyzed by primer extension using ^32P end-labeled primers corresponding in sequence to nucleotides 15–39 of the leader region (to detect RNA initiated from the +1U and +3 C sites on the promoter). […] Quantification was performed by phosphorimage analysis. […]

Data set [4] deals with recombinant RSV L+P (Human respiratory syncytial virus A, UniProt P28887). Put plainly: De novo RNA synthesis assay, recombinant RSV L+P, Tr14 template. It is filed as biochemical, Human RSV (strain A2). The method, then:
The reactions were performed as described by Cressey et al.[22]. […] The reactions were incubated at 30 °C for 1 h and then stopped by adding gel loading buffer containing 90% formamide, 50 mM EDTA, 0.05% Xylene Cyanol and Bromophenol Blue. Samples were denatured at 95 °C for 5 min and run on a 22.5% polyacrylamide urea sequencing gel at 80 W with radiolabeled RNA markers generated via the T7 DNA dependent RNA polymerase (DdRp). The gel was dried, exposed to a phosphor-screen, scanned on a Typhoon scanner (GE Healthcare), and quantified using ImageQuant (GE Healthcare). Bands were identified as extension products or initiation products by the 11-nucleotide ppp[…] and 2-nucleotide pppGA RNA markers, respectively. Radiolabeled RNA markers corresponding to pppGA, ppp[…], and intermediates were generated utilizing a reaction by T7 DNA-dependent RNA polymerase (AM2718, Ambion)[53]. DNA oligos: 5’-[…]-3’ (T7 promoter primer) and 5’-[…]-3’ (T7 promoter primer + target sequence template) were synthesized at IDT. Due to a mechanistic idiosyncrasy in T7 DdRp, an additional Adenosine residue was placed between the T7 promoter and the target sequence in the template. Each 40 µl reaction contained 5 mM ATP, 5 mM CTP, 5 mM GTP, 100 nM annealed DNA primer and template, 20 U T7 DdRp, 1x T7 DdRp Buffer (40 mM Tris pH 7.8, 20 mM NaCl, 6 mM MgCl2, 2 mM Spermidine HCl, 10 mM DTT), and 20 µCi of [α-^33P]ATP. Reactions were incubated at 30 °C for 5 h. Then 1 µl of reconstituted DNase I (Ambion) was added and incubated for an additional 10 min at 37 °C. This reaction was quenched with the addition of 60 µl gel loading buffer.
Supplementary Figure 4. Inhibition of de novo initiation and extension of RSV L-P RNA synthesis by JNJ-8003. a. reaction scheme. b. a sequencing gel image showing RNA products […]
contained 10 nM RSV L-P, 2 μM RNA template (Tr14), 500 μM GTP, 10 μM ATP, 170 nM [α-33P]ATP, so RNA synthesis started from +3 site and paused with a major 11-mer product. c.
Data was from the quantitation results of the gel image in b. d. The reactions […]
Data points indicate the mean, and error bars depict the SD of three technical replicates. e. a sequencing gel image showing RNA products synthesized by RSV L-P along with no enzyme control. Reaction condition was same as in b with no compound added. […]

The nature of data set [5]: in vitro. Particulars: rhesus monkey.
Data set [6] deals with PIV-3 (recombinant JS-derived strain encoding GFP). It is filed as cell-based, parainfluenza virus type 3.
Data set [7] addresses RSV L+P complex (Human respiratory syncytial virus A, UniProt P28887). Description: Surface plasmon resonance assay. It is filed as binding, Human RSV (strain A2). The note with it: SPR, 37°C. For orientation: Surface plasmon resonance follows binding to a sensor surface in real time, without labels.
The mark [8] stands for this setting: repeat in triplicate, 0.093 nM to 200 nM.

Several values for one entry are separate records, joined by “and”; a condition that tells them apart may be missing. Equal values may be shown once. Read-outs that look alike come from different tables or passages of the source.

Chain of recombinant RSV L+P (P28887 whole entry): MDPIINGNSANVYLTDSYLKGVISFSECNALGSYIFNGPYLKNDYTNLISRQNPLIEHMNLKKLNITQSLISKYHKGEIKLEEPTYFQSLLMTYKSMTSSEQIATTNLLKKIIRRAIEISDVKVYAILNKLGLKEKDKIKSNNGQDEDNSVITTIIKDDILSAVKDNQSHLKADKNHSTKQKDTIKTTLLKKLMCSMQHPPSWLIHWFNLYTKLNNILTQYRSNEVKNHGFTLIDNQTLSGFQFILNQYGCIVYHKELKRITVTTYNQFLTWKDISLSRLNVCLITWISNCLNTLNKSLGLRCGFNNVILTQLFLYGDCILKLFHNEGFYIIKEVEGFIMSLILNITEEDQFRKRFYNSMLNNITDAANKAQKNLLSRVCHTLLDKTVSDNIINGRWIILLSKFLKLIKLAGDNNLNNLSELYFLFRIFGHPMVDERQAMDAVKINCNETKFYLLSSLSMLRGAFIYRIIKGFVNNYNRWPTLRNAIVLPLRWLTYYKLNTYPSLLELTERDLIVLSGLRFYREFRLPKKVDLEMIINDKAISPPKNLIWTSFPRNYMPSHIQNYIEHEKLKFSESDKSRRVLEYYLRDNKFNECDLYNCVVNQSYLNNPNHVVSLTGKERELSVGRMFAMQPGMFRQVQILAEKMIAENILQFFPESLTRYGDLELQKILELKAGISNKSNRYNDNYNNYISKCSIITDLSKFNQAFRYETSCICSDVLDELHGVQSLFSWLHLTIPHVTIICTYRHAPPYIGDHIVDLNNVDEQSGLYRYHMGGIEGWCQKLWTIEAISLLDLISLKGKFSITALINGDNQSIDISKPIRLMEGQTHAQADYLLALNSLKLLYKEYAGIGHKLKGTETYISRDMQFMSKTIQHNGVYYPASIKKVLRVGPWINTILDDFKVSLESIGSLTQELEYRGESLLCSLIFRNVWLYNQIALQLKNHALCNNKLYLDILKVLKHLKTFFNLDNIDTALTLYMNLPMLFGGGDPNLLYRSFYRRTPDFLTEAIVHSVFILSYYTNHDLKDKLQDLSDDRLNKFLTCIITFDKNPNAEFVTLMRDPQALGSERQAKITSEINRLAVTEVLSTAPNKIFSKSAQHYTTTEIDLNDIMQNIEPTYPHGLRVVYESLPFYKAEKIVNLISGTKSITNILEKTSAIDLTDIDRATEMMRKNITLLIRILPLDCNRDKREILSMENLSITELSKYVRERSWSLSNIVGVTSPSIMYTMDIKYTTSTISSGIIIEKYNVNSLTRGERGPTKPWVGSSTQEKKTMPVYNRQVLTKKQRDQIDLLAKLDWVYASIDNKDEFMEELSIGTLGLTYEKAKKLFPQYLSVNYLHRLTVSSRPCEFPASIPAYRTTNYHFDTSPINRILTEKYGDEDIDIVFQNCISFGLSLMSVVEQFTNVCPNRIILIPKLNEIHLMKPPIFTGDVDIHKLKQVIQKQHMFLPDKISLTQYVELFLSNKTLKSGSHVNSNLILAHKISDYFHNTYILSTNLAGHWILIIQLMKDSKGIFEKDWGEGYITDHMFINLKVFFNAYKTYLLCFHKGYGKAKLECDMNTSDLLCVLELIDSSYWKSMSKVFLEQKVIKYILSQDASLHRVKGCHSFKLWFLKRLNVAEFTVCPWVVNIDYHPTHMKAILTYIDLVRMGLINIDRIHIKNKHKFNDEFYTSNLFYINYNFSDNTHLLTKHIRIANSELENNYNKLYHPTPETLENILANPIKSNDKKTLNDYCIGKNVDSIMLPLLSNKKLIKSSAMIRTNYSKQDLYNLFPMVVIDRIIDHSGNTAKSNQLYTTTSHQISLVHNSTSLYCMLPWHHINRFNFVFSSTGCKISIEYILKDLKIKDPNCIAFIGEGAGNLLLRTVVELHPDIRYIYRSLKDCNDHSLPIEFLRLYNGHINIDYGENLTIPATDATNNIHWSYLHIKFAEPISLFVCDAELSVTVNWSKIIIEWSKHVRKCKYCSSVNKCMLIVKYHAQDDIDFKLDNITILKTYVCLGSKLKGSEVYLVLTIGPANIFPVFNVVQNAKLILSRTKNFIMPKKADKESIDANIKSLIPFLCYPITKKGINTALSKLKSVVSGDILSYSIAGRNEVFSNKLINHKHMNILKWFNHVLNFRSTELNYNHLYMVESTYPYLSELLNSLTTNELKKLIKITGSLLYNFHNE
Chain of recombinant RSV L+P (P03421 whole entry, further chain): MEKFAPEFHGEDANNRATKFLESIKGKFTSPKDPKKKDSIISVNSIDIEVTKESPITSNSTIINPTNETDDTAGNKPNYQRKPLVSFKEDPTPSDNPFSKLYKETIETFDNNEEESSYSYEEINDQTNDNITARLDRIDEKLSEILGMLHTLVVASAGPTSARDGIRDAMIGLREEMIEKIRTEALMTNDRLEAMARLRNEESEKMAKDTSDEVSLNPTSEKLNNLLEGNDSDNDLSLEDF
Chain of RSV MTase-CTD protein (P28887 1755-2165): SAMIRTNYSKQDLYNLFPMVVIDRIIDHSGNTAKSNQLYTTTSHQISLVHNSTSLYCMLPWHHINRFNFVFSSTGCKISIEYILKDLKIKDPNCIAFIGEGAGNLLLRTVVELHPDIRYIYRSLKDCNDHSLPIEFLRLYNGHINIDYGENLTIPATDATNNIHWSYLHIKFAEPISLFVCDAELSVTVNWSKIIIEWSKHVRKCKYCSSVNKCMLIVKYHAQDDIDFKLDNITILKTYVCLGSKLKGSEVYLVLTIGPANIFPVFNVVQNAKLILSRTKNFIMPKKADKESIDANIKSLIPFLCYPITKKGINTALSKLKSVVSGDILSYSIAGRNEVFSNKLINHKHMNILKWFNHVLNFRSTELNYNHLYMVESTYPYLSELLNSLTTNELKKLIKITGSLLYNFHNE

A word on the IC50: it is the concentration at which inhibition is half-maximal. Take `COc1cc(C(=O)NC[C@](O)(c2cc(C(C)(C)O)c(F)c(-c3ccc(F)cc3)n2)C(F)(F)F)cc2cc(C)nnc12` [JNJ-8003]: the IC50 in data set [1] was over 100000 nM; in data set [4] (9.3 pM to 200 μM, read-out: IC50, 11-mer product), 4.7 nM; in data set [4] (+3 site, tr-14, 9.3 pM to 200 μM, read-out: IC50, de novo pppGpA dinucleotide formation) it was 5.1 nM; in data set [4] (repeat in triplicate, 0.093 nM to 200 nM, read-out: IC50, 11-mer product) it was 3.6 nM; in data set [4] (repeat in triplicate, 0.093 nM to 200 nM, read-out: IC50, de novo pppGpA formation), 2.3 nM. For the same compound, the “MTase activity, RNA+compound+RSV MTase-CTD, CPM” value in data set [2] (50 uM) is 32508 CPM and 30594 CPM and 30169 CPM; in data set [2] (200 uM), 26082 CPM and 22767 CPM and 27924 CPM. Also, in data set [2] (recombinant MTase-CTD fragment), the “impact on MTase activity (in words)” value is “no impact”. Further, in data set [3], the “antigenome RNA and mRNA (in words)” value is “dose dependent reduction”. Further, the “maximal inhibition, 11-mer product” value in data set [4] (9.3 pM to 200 μM) stood at 99%; in data set [4] (setting [8]), 100%. In addition, the “maximal inhibition, de novo pppGpA formation” value in data set [4] (9.3 pM to 200 μM) amounted to 65%; in data set [4] (setting [8]), 69%. The CC50 in data set [5] (Median CC50, LLC-MK2, parallel to HMPV assay) came out at 14000 nM; in data set [5] (Median CC50, LLC-MK2, parallel to PIV-1 assay), 18000 nM; in data set [5] (Median CC50, LLC-MK2, parallel to PIV-3 assay) it was 19000 nM. In data set [6], the “inhibition (in words)” value was “negligible inhibition”. The compound further had an off-rate in data set [7] of 0.0000181 s⁻¹. Moreover, the on-rate in data set [7] is 2.16e+06 M⁻¹ s⁻¹.
